Results: ChEMBL document CHEMBL3885881, “DrugMatrix”

Organism: Rattus norvegicus
Test: DrugMatrix - Regimen: Daily Repeat
Type: toxicity, organism-based, Sprague-Dawley
Set-up: regimen Daily Repeat, gender Male, age 6-8 weeks
Conditions: in vivo, po, route oral GAVAGE, vehicle 100 % WATER
[1] = 9 mg/kg, 72 h, tissue Blood, dose level Low, time 3 day
[2] = 9 mg/kg, 72 h, tissue Plasma, dose level Low, time 3 day
[3] = 9 mg/kg, 120 h, tissue Blood, dose level Low, time 5 day
[4] = 9 mg/kg, 120 h, tissue Plasma, dose level Low, time 5 day
[5] = 90 mg/kg, 72 h, tissue Blood, dose level High, time 3 day
[6] = 90 mg/kg, 72 h, tissue Plasma, dose level High, time 3 day
[7] = 90 mg/kg, 120 h, tissue Blood, dose level High, time 5 day
[8] = 90 mg/kg, 120 h, tissue Plasma, dose level High, time 5 day

Sequence: STANNOUS FLUORIDE
- ABSOLUTE BASOPHIL [1]: 0 CELLS/uL
- ABSOLUTE EOSINOPHIL [1]: 0 CELLS/uL
- ABSOLUTE LYMPHOCYTE [1]: 13273.33 CELLS/uL
- ABSOLUTE MONOCYTE [1]: 348.33 CELLS/uL
- ABSOLUTE SEGMENTED NEUTROPHIL [1]: 1378.33 CELLS/uL
- BASOPHIL [1]: 0%
- EOSINOPHIL [1]: 0%
- ERYTHROCYTE COUNT [1]: 5.48 x10E6/uL
- HEMATOCRIT [1]: 34.9%
- HEMOGLOBIN [1]: 13.5 G/DL
- LEUKOCYTE COUNT [1]: 15 x10E3/uL
- MEAN CORPUSCULAR HEMOGLOBIN [1]: 24.67 pg
- MEAN CORPUSCULAR HEMOGLOBIN CONCENTRATION [1]: 38.7 G/DL
- NUCLEATED RED BLOOD CELLS [1]: 0 /100WBC
- PLATELET COUNT [1]: 1118.33 x10E3/uL
- ALANINE AMINOTRANSFERASE [2]: 80.67 u/L
- ALKALINE PHOSPHATASE [2]: 343 u/L
- ASPARTATE AMINOTRANSFERASE [2]: 104.33 u/L
- BLOOD UREA NITROGEN [2]: 17 mg/dL
- CARBON DIOXIDE [2]: 21.33 mmol/L
- CHOLESTEROL [2]: 77 mg/dL
- CREATINE PHOSPHOKINASE [2]: 322.33 u/L
- CREATININE [2]: 0.21 mg/dL
- GLUCOSE [2]: 188 mg/dL
- LACTATE DEHYDROGENASE [2]: 156 u/L
- LIPASE [2]: 9.5 u/L
- PHOSPHORUS [2]: 11.3 mg/dL
- POTASSIUM [2]: 6.63 MEQ/L
- SODIUM [2]: 146.2 MEQ/L
- TOTAL BILIRUBIN [2]: 0.37 mg/dL
- TOTAL PROTEIN [2]: 5.07 G/DL
- URIC ACID [2]: 1.73 mg/dL
- ABSOLUTE BASOPHIL [3]: 0 CELLS/uL
- ABSOLUTE EOSINOPHIL [3]: 174 CELLS/uL
- ABSOLUTE LYMPHOCYTE [3]: 11650 CELLS/uL
- ABSOLUTE MONOCYTE [3]: 421.33 CELLS/uL
- ABSOLUTE SEGMENTED NEUTROPHIL [3]: 1221.33 CELLS/uL
- BASOPHIL [3]: 0%
- EOSINOPHIL [3]: 1%
- ERYTHROCYTE COUNT [3]: 5.66 x10E6/uL
- HEMATOCRIT [3]: 35.6%
- HEMOGLOBIN [3]: 13.1 G/DL
- LEUKOCYTE COUNT [3]: 13.47 x10E3/uL
- LYMPHOCYTE [3]: 86.67%
- MEAN CORPUSCULAR HEMOGLOBIN [3]: 23.23 pg
- MEAN CORPUSCULAR HEMOGLOBIN CONCENTRATION [3]: 36.9 G/DL
- MEAN CORPUSCULAR VOLUME [3]: 62.97 fL
- MONOCYTE [3]: 3%
- NUCLEATED RED BLOOD CELLS [3]: 0 /100WBC
- PLATELET COUNT [3]: 1231.67 x10E3/uL
- ALANINE AMINOTRANSFERASE [4]: 45 u/L
- ALKALINE PHOSPHATASE [4]: 430.67 u/L
- ASPARTATE AMINOTRANSFERASE [4]: 96.67 u/L
- BLOOD UREA NITROGEN [4]: 22 mg/dL
- CARBON DIOXIDE [4]: 24.33 mmol/L
- CHLORIDE [4]: 108.67 MEQ/L
- CHOLESTEROL [4]: 59 mg/dL
- CREATINE PHOSPHOKINASE [4]: 371.67 u/L
- CREATININE [4]: 0.2 mg/dL
- GLUCOSE [4]: 135.33 mg/dL
- LACTATE DEHYDROGENASE [4]: 479 u/L
- PHOSPHORUS [4]: 12.03 mg/dL
- POTASSIUM [4]: 6.27 MEQ/L
- SODIUM [4]: 147.1 MEQ/L
- TOTAL BILIRUBIN [4]: 0.17 mg/dL
- TOTAL PROTEIN [4]: 6.13 G/DL
- ABSOLUTE BASOPHIL [5]: 0 CELLS/uL
- ABSOLUTE EOSINOPHIL [5]: 58 CELLS/uL
- ABSOLUTE LYMPHOCYTE [5]: 13530 CELLS/uL
- ABSOLUTE MONOCYTE [5]: 390.67 CELLS/uL
- ABSOLUTE SEGMENTED NEUTROPHIL [5]: 1821.33 CELLS/uL
- BASOPHIL [5]: 0%
- EOSINOPHIL [5]: 0.33%
- ERYTHROCYTE COUNT [5]: 5.56 x10E6/uL
- HEMATOCRIT [5]: 34%
- LEUKOCYTE COUNT [5]: 15.8 x10E3/uL
- LYMPHOCYTE [5]: 85.67%
- MEAN CORPUSCULAR HEMOGLOBIN [5]: 23.23 pg
- MEAN CORPUSCULAR HEMOGLOBIN CONCENTRATION [5]: 38 G/DL
- NEUTROPHIL [5]: 11.67%
- NUCLEATED RED BLOOD CELLS [5]: 0 /100WBC
- PLATELET COUNT [5]: 1397.33 x10E3/uL
- ALANINE AMINOTRANSFERASE [6]: 42 u/L
- ALKALINE PHOSPHATASE [6]: 299.67 u/L
- ASPARTATE AMINOTRANSFERASE [6]: 76.33 u/L
- CARBON DIOXIDE [6]: 25 mmol/L
- CHOLESTEROL [6]: 62.33 mg/dL
- CREATINE PHOSPHOKINASE [6]: 334 u/L
- CREATININE [6]: 0.15 mg/dL
- LACTATE DEHYDROGENASE [6]: 108 u/L
- PHOSPHORUS [6]: 13.3 mg/dL
- POTASSIUM [6]: 6 MEQ/L
- TOTAL BILIRUBIN [6]: 0.23 mg/dL
- TOTAL PROTEIN [6]: 5.67 G/DL
- ABSOLUTE BASOPHIL [7]: 0 CELLS/uL
- ABSOLUTE EOSINOPHIL [7]: 49.67 CELLS/uL
- ABSOLUTE MONOCYTE [7]: 426 CELLS/uL
- ABSOLUTE SEGMENTED NEUTROPHIL [7]: 994 CELLS/uL
- BASOPHIL [7]: 0%
- EOSINOPHIL [7]: 0.33%
- ERYTHROCYTE COUNT [7]: 5.79 x10E6/uL
- HEMATOCRIT [7]: 36.83%
- HEMOGLOBIN [7]: 13.8 G/DL
- LEUKOCYTE COUNT [7]: 14.2 x10E3/uL
- MEAN CORPUSCULAR HEMOGLOBIN [7]: 23.9 pg
- MEAN CORPUSCULAR HEMOGLOBIN CONCENTRATION [7]: 37.5 G/DL
- MONOCYTE [7]: 3%
- NEUTROPHIL [7]: 7%
- NUCLEATED RED BLOOD CELLS [7]: 0 /100WBC
- PLATELET COUNT [7]: 1414 x10E3/uL
- ALANINE AMINOTRANSFERASE [8]: 41.33 u/L
- ALKALINE PHOSPHATASE [8]: 357 u/L
- ASPARTATE AMINOTRANSFERASE [8]: 86.33 u/L
- CARBON DIOXIDE [8]: 24.33 mmol/L
- CREATINE PHOSPHOKINASE [8]: 353.67 u/L
- CREATININE [8]: 0.22 mg/dL
- GLUCOSE [8]: 190.67 mg/dL
- LACTATE DEHYDROGENASE [8]: 202.33 u/L
- PHOSPHORUS [8]: 14.33 mg/dL
- POTASSIUM [8]: 6.7 MEQ/L
- SODIUM [8]: 150 MEQ/L
- TOTAL BILIRUBIN [8]: 0.2 mg/dL
- TOTAL PROTEIN [8]: 5.87 G/DL
- URIC ACID [8]: 2.3 mg/dL
